Test results: patent US7485259B2, “Organic compound and metal ion synergistic disinfection and purification system and method of manufacture” (priority 2003, dated 2009)

Key:
[1] = test system: L. pneumophila serogroup 1; conditions: ion used alone; cited from earlier work
[2] = after 60 days; cited from earlier work
MS2 = conditions: in 12 hours; cited from earlier work
Klebsiella terrigena = assay: Disinfection of seeded test waters, log reduction of Klebsiella; conditions: seeded municipal water
poliovirus = conditions: in 12 hours; cited from earlier work
MS2 bacteriophage = assay: Disinfection of seeded test waters, log reduction of MS2 virus; conditions: contact up to 24 hours

| Molecule | contact time to achieve complete (6 log) inactivation of Legionella [1] | share of initial input detectable in the test chambers [2] | log inactivation of MS2 (MS2) | log reduction of Klebsiella (Klebsiella terrigena; 60 minute contact time) | log reduction of Klebsiella (Klebsiella terrigena; 240 minutes contact time) | log inactivation of poliovirus (poliovirus) | reduction of MS2 virus (MS2 bacteriophage; seeded municipal water) | reduction of MS2 virus (MS2 bacteriophage; seeded untreated natural waters) |
| --- | --- | --- | --- | --- | --- | --- | --- | --- |
| [Cu+2] [copper ions] | 2.5 hours | 75% | 4.0 log | less than 3 log | less than 5 log | 1.3 log | – | – |
| silver ions | 24 hours | 44% | – | 5 log | – | – | No effective reduction | No effective reduction |
